Tests used:
[1] = target: T1, Retinaldehyde dehydrogenase 3 (Homo sapiens, UniProt P47895); assay: Inhibition of recombinant human 6His-tagged ALDH1A3 expressed in Escherichia coli BL21(DE3) using acetaldehyde as substrate preincubated for 5 mins followed by substrate addition by spectrometric assay
T1 sequence (P47895 whole entry): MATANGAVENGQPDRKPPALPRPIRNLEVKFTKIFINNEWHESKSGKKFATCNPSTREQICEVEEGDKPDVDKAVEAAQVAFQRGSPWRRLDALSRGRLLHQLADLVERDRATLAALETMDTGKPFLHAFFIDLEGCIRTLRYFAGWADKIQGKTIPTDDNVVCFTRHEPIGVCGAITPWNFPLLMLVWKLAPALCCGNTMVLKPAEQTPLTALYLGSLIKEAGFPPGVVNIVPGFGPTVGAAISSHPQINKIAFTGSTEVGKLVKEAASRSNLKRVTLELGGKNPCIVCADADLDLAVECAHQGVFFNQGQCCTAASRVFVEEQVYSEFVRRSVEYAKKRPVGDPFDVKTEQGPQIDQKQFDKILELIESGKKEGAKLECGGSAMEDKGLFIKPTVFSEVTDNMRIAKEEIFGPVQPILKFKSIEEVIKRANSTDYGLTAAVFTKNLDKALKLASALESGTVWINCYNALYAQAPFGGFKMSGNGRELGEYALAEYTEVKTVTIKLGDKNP

[2] = Antiproliferative activity against human PN157 cells measured after 72 hrs by alamar blue assay; assay type: functional, cell-based
[3] = Antiproliferative activity against human MES374 cells measured after 72 hrs by alamar blue assay; assay type: functional, cell-based
[4] = Antiproliferative activity against human MES267 cells measured after 72 hrs by alamar blue assay; assay type: functional, cell-based
[5] = target: T2, Aldehyde dehydrogenase 1A1 (Homo sapiens, UniProt P00352); assay: Inhibition of recombinant human 6His-tagged ALDH1A1 expressed in Escherichia coli BL21(DE3) using acetaldehyde as substrate preincubated for 5 mins followed by substrate addition by spectrometric assay
T2 sequence (P00352 whole entry): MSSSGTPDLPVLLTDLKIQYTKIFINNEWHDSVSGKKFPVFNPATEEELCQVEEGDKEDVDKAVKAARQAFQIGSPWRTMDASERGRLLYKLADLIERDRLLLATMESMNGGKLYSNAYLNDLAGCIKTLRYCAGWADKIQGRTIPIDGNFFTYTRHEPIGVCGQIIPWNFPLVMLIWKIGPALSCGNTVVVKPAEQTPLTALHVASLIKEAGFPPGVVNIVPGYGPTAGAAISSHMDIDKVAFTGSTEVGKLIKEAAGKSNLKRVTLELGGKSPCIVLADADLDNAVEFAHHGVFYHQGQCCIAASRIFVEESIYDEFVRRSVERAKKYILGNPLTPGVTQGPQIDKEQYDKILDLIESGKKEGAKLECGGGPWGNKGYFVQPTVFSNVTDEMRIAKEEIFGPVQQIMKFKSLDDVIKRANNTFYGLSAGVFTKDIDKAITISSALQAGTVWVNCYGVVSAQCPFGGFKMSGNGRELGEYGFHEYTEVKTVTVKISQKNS

Retinal dehydrogenase 2 = target: T3, Retinal dehydrogenase 2 (Homo sapiens, UniProt O94788); assay: Inhibition of recombinant human 6His-tagged ALDH1A2 expressed in Escherichia coli BL21(DE3) using acetaldehyde as substrate preincubated for 5 mins followed by substrate addition by spectrometric assay
T3 sequence (O94788 whole entry): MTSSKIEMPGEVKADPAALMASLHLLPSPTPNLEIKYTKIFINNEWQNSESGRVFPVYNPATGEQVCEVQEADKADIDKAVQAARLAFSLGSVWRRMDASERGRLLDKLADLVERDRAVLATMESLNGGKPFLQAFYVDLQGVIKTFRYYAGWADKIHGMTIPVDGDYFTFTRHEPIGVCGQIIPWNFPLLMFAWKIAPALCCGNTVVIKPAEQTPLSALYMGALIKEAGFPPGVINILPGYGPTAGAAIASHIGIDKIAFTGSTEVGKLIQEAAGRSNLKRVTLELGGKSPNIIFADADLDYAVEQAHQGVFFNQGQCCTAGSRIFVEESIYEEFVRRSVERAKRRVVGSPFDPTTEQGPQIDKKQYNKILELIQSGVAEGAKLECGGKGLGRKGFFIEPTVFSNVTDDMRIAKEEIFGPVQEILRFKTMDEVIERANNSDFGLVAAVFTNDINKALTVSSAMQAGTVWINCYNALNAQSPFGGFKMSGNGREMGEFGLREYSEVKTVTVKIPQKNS

[6] = target: T1, Retinaldehyde dehydrogenase 3; assay: Competitive inhibition of recombinant human 6His-tagged ALDH1A3 expressed in Escherichia coli BL21(DE3) using varying level of acetaldehyde as substrate preincubated for 5 mins followed by substrate addition by Michaelis-Menten plot analysis

SMILES | IC50 [1] [µM] | IC50 [2] [µM] | IC50 [3] [nM] | IC50 [4] [µM] | IC50 [5] [µM] | IC50 (Retinal dehydrogenase 2) [µM] | Ki [6] [µM]
N#Cc1ccc(-c2ccc3nc(-c4ccccc4)cn3c2)cc1 | 5.2 | – | – | – | – | – | –
COc1cccc(-c2cn3cc(-c4ccc(Cl)cc4)ccc3n2)c1 | 6.4 | 0.0296 | 13.5 | 0.0712 | – | – | –
CSc1ccc(-c2ccc3nc(-c4ccccc4)cn3c2)cc1 | 27.1 | – | – | – | – | – | –
N#Cc1cccc(-c2ccc3nc(-c4ccccc4)cn3c2)c1 | 5.3 | – | – | – | – | – | –
Fc1ccc(-c2ccc3nc(-c4ccccc4)cn3c2)cc1 | 22.8 | 0.0252 | 0.00258 | 0.0634 | – | – | –
COC(=O)c1ccc(-c2ccc3nc(-c4ccccc4)cn3c2)cc1 | 27.4 | 0.822 | – | 0.823 | 96.9 | – | –
COc1ccc(-c2cn3cc(-c4ccc(OC)c(OC)c4)ccc3n2)cc1 | 8.3 | – | – | – | – | – | –
c1ccc(-c2ccc3nc(-c4ccccc4)cn3c2)cc1 | 4.7 | 0.151 | 2.74 | 0.0469 | 19.6 | 54.6 | 0.54
COc1ccc(-c2ccc3nc(-c4ccc(OC)cc4)cn3c2)cc1 | 11.4 | – | – | – | – | – | –
COc1ccc(-c2ccc3nc(-c4ccccc4)cn3c2)cc1 | 17.8 | 2.66 | – | 0.66 | – | – | –
COc1ccc(-c2cn3cc(-c4cc(OC)cc(OC)c4)ccc3n2)cc1 | 3.5 | – | – | – | 198 | – | –
Cc1ccc(-c2cn3cc(-c4ccccc4)ccc3n2)cc1 | 11.3 | – | – | – | – | – | –
Clc1ccc(-c2ccc3nc(-c4ccccc4)cn3c2)cc1 | 45.8 | 0.0531 | 0.0196 | 0.0215 | 68.8 | – | –
Clc1ccc(-c2ccc3nc(-c4ccc(Br)cc4)cn3c2)cc1 | – | – | – | – | 17.3 | – | –
Cc1ccc(-c2cn3cc(-c4ccc(F)cc4)ccc3n2)cc1 | 92.9 | – | – | – | – | – | –
COc1cccc(-c2cn3cc(-c4ccc(F)cc4)ccc3n2)c1 | 21.2 | 1.51 | – | 0.35 | – | – | –
